Measured values: patent US12679878B2, “CRF2 receptor agonists and their use in therapy” (SANOFI, priority 2020, dated 2026)
Read-outs that look alike come from different tables or passages of the source. Starred links: 1 amine or outer side, 2 acyl side, 3 side chain; linkers in the order of their positions; H or OH if unused. Non-standard residues stand in square brackets, D forms with d. Residues, ends and D or L forms follow the SMILES beside them. Groups on a side chain read outwards from the residue. No end group written: not given here. *: point of attachment. C18 diacid = O=C(O)CCCCCCCCCCCCCCCCC(=O)*; γGlu = O=C(O)[C@H](CCC(=O)[*:2])N[*:1]; Palmitoyl = CCCCCCCCCCCCCCCC(=O)*; AEEA = NCCOCCOCC(=O)O; Aib = CC(C)(N)C(=O)O

T1: human CRF2α receptor (Homo sapiens, UniProt Q13324)
T1 construct: expressed in transfected cells; host or cells: TeloHEAC
T1 sequence (Q13324 1-411): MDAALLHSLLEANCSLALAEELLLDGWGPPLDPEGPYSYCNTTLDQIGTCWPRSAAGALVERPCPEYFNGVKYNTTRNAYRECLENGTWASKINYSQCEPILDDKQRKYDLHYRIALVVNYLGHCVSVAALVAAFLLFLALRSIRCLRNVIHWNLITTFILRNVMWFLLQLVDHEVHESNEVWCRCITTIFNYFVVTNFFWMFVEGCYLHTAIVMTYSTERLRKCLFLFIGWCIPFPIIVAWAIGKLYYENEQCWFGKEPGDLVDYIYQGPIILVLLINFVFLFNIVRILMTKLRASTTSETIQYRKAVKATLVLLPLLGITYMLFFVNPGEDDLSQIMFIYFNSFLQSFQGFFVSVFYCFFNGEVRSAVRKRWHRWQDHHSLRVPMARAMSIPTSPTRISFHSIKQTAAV


What was measured:
[1] = tested on: rat CRF2R α receptor; assay: cAMP agonism at rat CRF2R α receptor in A7R5 rat aortic smooth muscle cells (Example 8); type: cell-based; conditions: cAMP HTRF, A7R5 rat aortic smooth muscle cell line, 0% HSA
In short: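 Potency (EC50) is the concentration reaching half-maximal activation, with responses scaled so that 1000 nM urocortin 2 equals 100%. Intracellular cAMP was quantified by homogeneous time-resolved fluorescence at 665/620 nm, 1 h after lysis-buffer reagents. Compound stimulation lasted 30 min at room temperature on 2000 IBMX-treated (2 mM) cells per well in HEPES-buffered HBSS.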

[2] = Solubility in buffer systems by UPLC-UV (Example 13); type: physicochemical; conditions: pH 4.5, Solubility in Buffer B [mg/ml]
In short: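 Quantitation used UV peak area from UPLC of the 1:10-diluted supernatant, set against a reference-compound standard curve with extinction coefficients adjusted for amino acid sequence.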

[3] = Physical stability, dynamic light scattering assay (Example 15); type: physicochemical; conditions: Buffer B (100 mM acetate, pH 4.5, 2.7 mg/ml m-cresol)
Procedure: The physical stability of the compounds was also assessed using a dynamic light scattering assay.
In the present study, the physical stability of test compounds was assessed by determining the apparent hydrodynamic radius (Rh), the scattering intensity (I) and mass contribution (M) after synthesis (0 weeks) and after storage for 4 weeks at 40° C.
For each solution of test compound, the hydrodynamic radius Rh and the diffusion constant D (related via the Stokes-Einstein equation) were determined as an average over triplicates. Both parameters were determined at different compound concentrations (e.g., Rh1 and D1: 1 mg/ml and Rh5 and D5: 5 mg/ml, Rh10 and D10: 10 mg/mL) in the same buffer system. The difference of these parameters between low and high peptide concentration is a surrogate for the DLS interaction parameter kD. […] In addition, the hydrodynamic radius Rh and the corresponding Scattering Intensity (%) were determined as an average over duplicates. The target concentration was 300 μM. Therefore, solutions from solid samples were prepared in a buffer system with a concentration of 300 μM compound based on the previously determined % purity.
DLS measurements were performed on a DynaPro Plate Reader I (Wyatt Technology, Santa Barbara, CA, US) with an 837 nm laser light source at a scattering angle of 150°. The data were collected and processed with Dynamics V 7.8.1.3 or 7.8.2.18 software provided by Wyatt Technology.
Hydrodynamic radii were determined with non-negatively constrained least squares (NNLS) methods using DYNALS algorithms with regularization fit. […] Samples were tempered over 1 hour at +25° C. and visually inspected before analysis.
Samples were mixed with the aid of a pipet tip. Measurements were performed in 5 replicates. […] The plate was centrifuged for 2 minutes at 600 rcf. After removing the sealing, the samples were measured at +25° C.

[4] = Physical stability, Thioflavin T fibrillation assay (Example 14); type: physicochemical; conditions: Buffer B: 100 mM acetate buffer, pH 4.5, 2.7 mg/ml m-cresol; 3 mg/ml; 37° C. shaking
In short: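 Fibrillation tendency was judged from lag time and rise in Thioflavin T fluorescence, measured every 20 minutes over eight replicates per sample. Peptides at 3 mg/ml final were held at 37° C under cycles of 10 s shaking (960 rpm) and 50 s rest.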

[5] = target: T1, human CRF2α receptor; assay: cAMP agonism at human CRF2 α receptor in TeloHEAC cells (Example 7); type: cell-based; conditions: cAMP HTRF, TeloHEAC cells stably expressing human CRF2 α
In short: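 HTRF ratio 665/620 nm, read 1 h after lysis reagents, reports cAMP. Cells: thawed stocks, 2000/well, 30 min RT with compound in HBSS, 20 mM HEPES, 0 or 0.1% HSA, 2 mM IBMX. Activity normalised to UCN2 1000 nM = 100%; EC50 from half-maximal activation.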

[6] = target: human corticotropin-releasing factor 2α (CRF2α receptor) (human), Q13324; assay: cell-based or functional assay

Row | Molecule | EC50 [1] [nM] | solubility at 1 h [2] [µg/mL] | Apparent Rh [nm] 0 weeks ([3]; 0 weeks) [nm] | Scattering Intensity (I) [%] 0 weeks ([3]; 0 weeks) [%] | Apparent Rh [nm] 4 weeks ([3]; 4 weeks at 40° C.) [nm] | Scattering Intensity (I) [%] 4 weeks ([3]; 4 weeks at 40° C.) [%] | Increase in FI (fluorescence intensity) [4] | Lag time [4] [h] | EC50 ([5]; 0% HSA, read-out: EC50 [nM], 0% HSA) [nM] | EC50 ([5]; 0.1% HSA, read-out: EC50 [nM], 0.1% HSA) [nM] | EC50 [nM], 0% HSA (cAMP, HTRF) [6] [nM]
1 | CC[C@H](C)[C@H](N)C(=O)N[C@H](C(=O)N[C@@H](CC(C)C)C(=O)N[C@@H](CO)C(=O)N[C@@H](CC(C)C)C(=O)N[C@@H](CC(=O)O)C(=O)N[C@@H](C(=O)N1CCC[C@H]1C(=O)N[C@H](C(=O)N[C@@H](CCCCN)C(=O)N[C@@H](CC(C)C)C(=O)N[C@@H](CCCCNC(=O)COCCOCCNC(=O)COCCOCCNC(=O)CC[C@H](NC(=O)CCCCCCCCCCCCCCCCC(=O)O)C(=O)O)C(=O)N[C@@H](CCC(N)=O)C(=O)N[C@H](C(=O)N[C@@H](CC(C)C)C(=O)N[C@@H](CC(C)C)C(=O)N[C@@H](CCC(=O)O)C(=O)N[C@@H](CCC(N)=O)C(=O)N[C@@H](C)C(=O)N[C@@H](CCCNC(=N)N)C(=O)N[C@@H](CCC(N)=O)C(=O)N[C@@H](CCCCN)C(=O)NC(C)(C)C(=O)N[C@@H](CCC(N)=O)C(=O)N[C@@H](CCCNC(=N)N)C(=O)N[C@@H](CCC(=O)O)C(=O)N[C@@H](CCC(N)=O)C(=O)N[C@@H](C)C(=O)N[C@@H](CCC(=O)O)C(=O)N[C@@H](CCCCN)C(=O)N[C@@H](CC(N)=O)C(=O)N[C@@H](CCCCN)C(=O)N[C@@H](CCCNC(=N)N)C(=O)N[C@H](C(=O)N[C@@H](CC(C)C)C(=O)N[C@@H](CCC(=O)O)C(=O)N[C@@H](CCCNC(=N)N)C(=O)N[C@H](C(N)=O)C(C)C)[C@@H](C)CC)[C@@H](C)CC)[C@@H](C)CC)C(C)C)C(C)C [compound 142] (H-IVLSLD[dV]PIKLK([AEEA-AEEA-γGlu-C18 diacid])QILLEQARQK[Aib]QREQAEKNKRILERV-NH2; N-terminus assumed) | 0.2 | > 8700 | 3.63 ± 0.14 | 100 ± 0 | 3.59 ± 0.04 | 100 ± 0 | No | >45 | 0.05 | 1.42 | 
2 | IVLSLD[dV]PIKLK([AEEA-AEEA-γGlu-Palmitoyl])QILLKQERQK[Aib]QREQAEKNKQILAQV-NH2 (N-terminus assumed; SMILES CCCCCCCCCCCCCCCC(=O)N[C@@H](CCC(=O)NCCOCCOCC(=O)NCCOCCOCC(=O)NCCCC[C@H](NC(=O)[C@H](CC(C)C)NC(=O)[C@H](CCCCN)NC(=O)[C@@H](NC(=O)[C@@H]1CCCN1C(=O)[C@H](NC(=O)[C@H](CC(=O)O)NC(=O)[C@H](CC(C)C)NC(=O)[C@H](CO)NC(=O)[C@H](CC(C)C)NC(=O)[C@@H](NC(=O)[C@@H](N)[C@@H](C)CC)C(C)C)C(C)C)[C@@H](C)CC)C(=O)N[C@@H](CCC(N)=O)C(=O)N[C@H](C(=O)N[C@@H](CC(C)C)C(=O)N[C@@H](CC(C)C)C(=O)N[C@@H](CCCCN)C(=O)N[C@@H](CCC(N)=O)C(=O)N[C@@H](CCC(=O)O)C(=O)N[C@@H](CCCNC(=N)N)C(=O)N[C@@H](CCC(N)=O)C(=O)N[C@@H](CCCCN)C(=O)NC(C)(C)C(=O)N[C@@H](CCC(N)=O)C(=O)N[C@@H](CCCNC(=N)N)C(=O)N[C@@H](CCC(=O)O)C(=O)N[C@@H](CCC(N)=O)C(=O)N[C@@H](C)C(=O)N[C@@H](CCC(=O)O)C(=O)N[C@@H](CCCCN)C(=O)N[C@@H](CC(N)=O)C(=O)N[C@@H](CCCCN)C(=O)N[C@@H](CCC(N)=O)C(=O)N[C@H](C(=O)N[C@@H](CC(C)C)C(=O)N[C@@H](C)C(=O)N[C@@H](CCC(N)=O)C(=O)N[C@H](C(N)=O)C(C)C)[C@@H](C)CC)[C@@H](C)CC)C(=O)O) [peptide of SEQ ID NO: 205] |  |  |  |  |  |  |  |  |  |  | 0.32
